Measurements: ChEMBL document CHEMBL1139694, “N,N'-Diarylcyanoguanidines as antagonists of the CXCR2 and CXCR1 chemokine receptors” (Bioorg Med Chem Lett, 2006)

Experiments:
[1] = target: T1, C-X-C chemokine receptor type 2 (Homo sapiens, UniProt P25025); experiment: Displacement of [125I]IL8 from CXCR2 expressed in CHO cells; assay type: cell-based
T1 sequence (P25025 whole entry): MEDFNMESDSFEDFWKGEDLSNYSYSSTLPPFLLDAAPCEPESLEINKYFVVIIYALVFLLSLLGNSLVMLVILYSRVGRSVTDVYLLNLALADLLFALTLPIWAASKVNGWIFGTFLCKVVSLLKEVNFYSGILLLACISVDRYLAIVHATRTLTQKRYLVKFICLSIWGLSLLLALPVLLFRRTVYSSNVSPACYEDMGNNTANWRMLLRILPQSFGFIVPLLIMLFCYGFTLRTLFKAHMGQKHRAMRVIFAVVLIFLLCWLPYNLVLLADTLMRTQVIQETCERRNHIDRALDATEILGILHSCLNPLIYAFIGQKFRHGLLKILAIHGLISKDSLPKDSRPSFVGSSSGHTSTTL

[2] = target: T2, C-X-C chemokine receptor type 1 (Homo sapiens, UniProt P25024); experiment: Displacement of [125I]IL8 from CXCR1 expressed in CHO cells; assay type: cell-based
T2 sequence (P25024 whole entry): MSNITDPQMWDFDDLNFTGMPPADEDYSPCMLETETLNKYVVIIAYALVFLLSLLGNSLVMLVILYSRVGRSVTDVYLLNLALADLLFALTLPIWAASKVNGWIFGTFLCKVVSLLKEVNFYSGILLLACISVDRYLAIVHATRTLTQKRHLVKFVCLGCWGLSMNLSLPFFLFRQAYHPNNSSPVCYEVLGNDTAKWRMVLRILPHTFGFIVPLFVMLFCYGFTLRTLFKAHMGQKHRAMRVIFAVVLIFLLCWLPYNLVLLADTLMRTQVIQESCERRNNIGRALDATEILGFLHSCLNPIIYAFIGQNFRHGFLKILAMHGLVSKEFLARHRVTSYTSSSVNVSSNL

[3] = target: Interleukin-8 receptors, CXCR1/CXCR2 (Homo sapiens) (UniProt P25025+P25024); experiment: Selectivity for CXCR2 over CXCR1; assay type: protein assay
[4] = Dissociation constant, pKa of the compound; assay type: physicochemical

SMILES	IC50 [1]	IC50 [2]	Ratio IC50 [3]	pKa [4]
CN(C)S(=O)(=O)c1c(Cl)ccc(N/C(=N/C#N)Nc2ccccc2OCc2ccccc2)c1O	9 nM (antagonist)	293 nM (antagonist)		
CN(C)S(=O)(=O)c1c(Cl)ccc(N/C(=N/C#N)Nc2ccccc2Br)c1O	5 nM (antagonist)	55 nM (antagonist)		
CN(C)S(=O)(=O)c1c(F)ccc(N/C(=N/C#N)Nc2ccccc2Br)c1O	4 nM (antagonist)	192 nM (antagonist)		
CN(C)S(=O)(=O)c1c(Cl)ccc(N/C(=N/C#N)Nc2cccc(Cl)c2F)c1O			> 200	
CCC(CC)(NS(=O)(=O)c1c(Cl)ccc(N/C(=N/C#N)Nc2ccccc2Br)c1O)N1C[C@@H](C)O[C@@H](C)C1	9 nM (antagonist)	215 nM (antagonist)		6.41
CCC(CC)(NS(=O)(=O)c1c(Cl)ccc(N/C(=N/C#N)Nc2ccccc2Br)c1O)N1CCC[C@@H]1C(=O)O	16 nM (antagonist)	22 nM (antagonist)		
CN(C)S(=O)(=O)c1c(Cl)ccc(N=C(NC#N)Nc2cccc(Cl)c2F)c1O	29 nM (antagonist)	6200 nM		
CCC(CC)(NS(=O)(=O)c1cccc(N/C(=N/C#N)Nc2ccccc2Br)c1O)N1CCOCC1	12 nM (antagonist)	582 nM (antagonist)		6.48
CCC(CC)(NS(=O)(=O)c1c(Cl)ccc(N/C(=N/C#N)Nc2ccccc2Br)c1O)N1CCC(N)CC1	22 nM (antagonist)	188 nM (antagonist)		
CN(C)S(=O)(=O)c1c(Cl)ccc(N=C(NC#N)Nc2ccccc2C(F)(F)F)c1O	12 nM (antagonist)	411 nM (antagonist)		
CCC(CC)(NS(=O)(=O)c1c(Cl)ccc(N=C(NC#N)Nc2ccccc2C)c1O)N1C[C@@H](C)O[C@@H](C)C1	17 nM (antagonist)	1080 nM		
Cc1ccc(N=C(NC#N)Nc2ccccc2Br)c(O)c1S(=O)(=O)N(C)C	7 nM (antagonist)	187 nM (antagonist)		
CN(C)S(=O)(=O)c1c(Cl)ccc(N/C(=N/C#N)Nc2ccccc2-c2ccccc2)c1O	13 nM (antagonist)	752 nM (antagonist)		
CCC(CC)(NS(=O)(=O)c1c(C)ccc(N=C(NC#N)Nc2ccccc2Br)c1O)N1CCOCC1	6 nM (antagonist)	104 nM (antagonist)		
CC(C)c1ccccc1N/C(=N\C#N)Nc1ccc(Cl)c(S(=O)(=O)N(C)C)c1O	112 nM (antagonist)	7290 nM		
CN(C)S(=O)(=O)c1c(C(F)(F)F)ccc(N/C(=N/C#N)Nc2ccccc2Br)c1O	7 nM (antagonist)	100 nM (antagonist)		
CN(C)S(=O)(=O)c1c(Cl)ccc(N=C(NC#N)Nc2ccccc2F)c1O	9 nM (antagonist)	1550 nM		
CCc1ccccc1NC(=Nc1ccc(Cl)c(S(=O)(=O)N(C)C)c1O)NC#N	15 nM (antagonist)	512 nM (antagonist)		
Cc1ccccc1NC(=Nc1ccc(Cl)c(S(=O)(=O)N(C)C)c1O)NC#N	17 nM (antagonist)	378 nM (antagonist)		
